From patent US10584117B2, “1,3,4-oxadiazole amide derivative compound as histone deacetylase 6 inhibitor, and pharmaceutical composition containing same” (Chong Kun Dang Pharmaceutical Corp., priority 2015, dated 2020) come the findings set out here.

Experiment [1] deals with T1, human recombinant HDAC6 (Homo sapiens, UniProt Q9UBN7).
T1 construct: purchased Calbiochem 382180
T1 sequence (Q9UBN7 1-1215): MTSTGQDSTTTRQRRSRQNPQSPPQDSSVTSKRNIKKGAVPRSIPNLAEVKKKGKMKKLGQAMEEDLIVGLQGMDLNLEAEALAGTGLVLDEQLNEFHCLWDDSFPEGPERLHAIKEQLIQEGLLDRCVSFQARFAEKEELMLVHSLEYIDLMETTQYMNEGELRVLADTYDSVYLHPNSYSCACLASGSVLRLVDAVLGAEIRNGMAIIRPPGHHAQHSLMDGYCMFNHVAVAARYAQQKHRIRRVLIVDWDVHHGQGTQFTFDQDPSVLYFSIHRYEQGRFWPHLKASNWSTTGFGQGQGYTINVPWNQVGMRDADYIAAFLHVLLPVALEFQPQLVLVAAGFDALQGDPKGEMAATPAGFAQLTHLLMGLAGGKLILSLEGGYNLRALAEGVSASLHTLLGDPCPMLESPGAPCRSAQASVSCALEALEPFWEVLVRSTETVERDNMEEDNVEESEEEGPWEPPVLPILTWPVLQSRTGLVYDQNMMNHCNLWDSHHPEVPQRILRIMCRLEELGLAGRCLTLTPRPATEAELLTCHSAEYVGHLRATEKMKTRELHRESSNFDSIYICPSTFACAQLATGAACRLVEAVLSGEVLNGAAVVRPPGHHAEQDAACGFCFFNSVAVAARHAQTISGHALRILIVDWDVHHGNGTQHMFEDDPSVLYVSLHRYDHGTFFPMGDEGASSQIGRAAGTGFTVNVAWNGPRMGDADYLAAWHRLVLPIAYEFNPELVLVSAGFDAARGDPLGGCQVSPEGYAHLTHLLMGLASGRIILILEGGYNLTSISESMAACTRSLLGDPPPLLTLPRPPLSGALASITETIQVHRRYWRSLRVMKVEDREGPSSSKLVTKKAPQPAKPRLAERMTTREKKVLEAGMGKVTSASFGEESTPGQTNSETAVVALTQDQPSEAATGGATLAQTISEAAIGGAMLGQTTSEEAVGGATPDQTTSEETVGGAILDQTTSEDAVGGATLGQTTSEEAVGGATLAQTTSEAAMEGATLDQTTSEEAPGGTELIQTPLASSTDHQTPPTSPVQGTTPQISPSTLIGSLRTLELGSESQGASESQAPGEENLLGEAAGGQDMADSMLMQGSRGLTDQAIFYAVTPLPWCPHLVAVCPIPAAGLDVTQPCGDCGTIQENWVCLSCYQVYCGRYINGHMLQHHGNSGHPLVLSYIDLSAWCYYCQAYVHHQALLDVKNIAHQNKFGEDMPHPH
The experiment in a line: HDAC enzyme activity inhibition assay (HDAC6, fluorimetric kit). The experiment is classed as biochemical. To be noted: for HDAC6 selectivity (fold): HDAC6 versus HDAC1; for IC50: same protocol as the HDAC1 test. In outline:
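Fluorimetric kit assay: human recombinant HDAC1 or HDAC6 (0.3 μg) reacted with 10 μM Fluor de Lys-SIRT1 substrate and 5-fold serially diluted compound for 60 minutes at 30° C, followed by 30 minutes of developer. Fluorescence was read at Ex 360/Em 460, and IC50 values were calculated from it.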

In experiment [2] the target is T2, human recombinant HDAC1 (Homo sapiens, UniProt Q13547).
T2 construct: purchased Enzo Life Science BML-SE456
T2 sequence (Q13547 whole entry): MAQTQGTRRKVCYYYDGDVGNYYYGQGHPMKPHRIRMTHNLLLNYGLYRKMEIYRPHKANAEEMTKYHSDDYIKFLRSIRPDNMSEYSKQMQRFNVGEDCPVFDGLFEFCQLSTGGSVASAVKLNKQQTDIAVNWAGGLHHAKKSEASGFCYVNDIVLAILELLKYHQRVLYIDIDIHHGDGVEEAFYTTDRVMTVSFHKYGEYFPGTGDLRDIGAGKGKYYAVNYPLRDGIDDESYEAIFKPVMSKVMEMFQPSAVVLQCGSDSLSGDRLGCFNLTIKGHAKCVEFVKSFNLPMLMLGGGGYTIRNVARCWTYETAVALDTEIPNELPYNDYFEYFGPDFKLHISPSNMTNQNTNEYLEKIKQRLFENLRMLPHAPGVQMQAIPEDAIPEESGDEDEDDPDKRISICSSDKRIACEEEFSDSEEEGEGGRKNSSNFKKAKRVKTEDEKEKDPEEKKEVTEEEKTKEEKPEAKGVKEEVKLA
Put plainly: HDAC enzyme activity inhibition assay (HDAC1, fluorimetric kit). The experiment is classed as biochemical. To be noted: 0.3 μg enzyme, 10 μM substrate, 30° C., 60 minutes. The method, then: In order to examine the HDAC6 selectivity of the compounds of formula I of the present invention by HDAC1 and HDAC6 enzymatic activity inhibition assays, an experiment was performed using a conventional substance as a control. HDAC enzyme activity was measured using a HDAC Fluorimetric Drug Discovery Kit (BML-AK511, 516) from Enzo Life Science. For the HDAC1 enzyme activity test, human recombinant HDAC1 (BML-SE456) was used as an enzyme source, and Fluor de Lys®-“SIRT1 (BNL-KI177) was used as a substrate. A 5-fold dilution of the compound was seeded into a 96-well plate, and then 0.3 μg of the enzyme and 10 μM of the substrate were added to each well of the plate and allowed to react at 30° C. for 60 minutes. Then, Fluor de Lys®-Developer II (BML-KI176) was added thereto and allowed to react for 30 minutes, after which the fluorescence value (Ex 360, Em 460) was measured using a multi-plate reader (Flexstation 3, Molecular Device). The HDAC6 enzyme was tested using human recombinant HDAC6 (382180) from Calbiochem, according to the same protocol as the HDAC1 enzyme activity test method. Based on the resulting values, each IC50 value was calculated using GraphPad Prism4.0 program.

Turning to `O=C(C1CCN(Cc2ccccc2)CC1)N(Cc1ccc(-c2nnc(C(F)(F)F)o2)cc1)c1ccccc1` [Compound 11166, 1-benzyl-N-phenyl-N-(4-(5-(trifluoromethyl)-1,3,4-oxadiazol-2-yl)benzyl)piperidine-4-carboxamide], the “HDAC6 selectivity (fold)” value in experiment [1] is listed as 194 fold. For the same molecule, the half-inhibitory concentration (IC50) in experiment [1] was 516 nM; in experiment [2] it was 27200 nM.
Take `CC(=O)N1CCN(CC(=O)N(Cc2ccc(-c3nnc(C(F)F)o3)cc2F)c2ccc(F)c(Cl)c2)CC1` [Compound 11611, 2-(4-acetylpiperazin-1-yl)-N-(3-chloro-4-fluorophenyl)-N-(4-(5-(difluoromethyl)-1,3,4-oxadiazol-2-yl)-2-fluorobenzyl)acetamide]: in experiment [1], the “HDAC6 selectivity (fold)” value worked out at 625 fold and the IC50 stood at 160 nM.
The matching figures for `O=C(C1CC1)N1CCN(CC(=O)N(Cc2ccc(-c3nnc(C(F)F)o3)cc2F)c2ccc(F)c(Cl)c2)CC1` [Compound 11612, N-(3-chloro-4-fluorophenyl)-2-(4-(cyclopropanecarbonyl)piperazin-1-yl)-N-(4-(5-(difluoromethyl)-1,3,4-oxadiazol-2-yl)-2-fluorobenzyl)acetamide]: 535 fold and 187 nM.
The matching figures for `CS(=O)(=O)N1CCN(CC(=O)N(Cc2ccc(-c3nnc(C(F)F)o3)cc2F)c2ccc(F)c(Cl)c2)CC1` [Compound 11613, N-(3-chloro-4-fluorophenyl)-N-(4-(5-(difluoromethyl)-1,3,4-oxadiazol-2-yl)-2-fluorobenzyl)-2-(4-(methylsulfonyl)piperazin-1-yl)acetamide]: 676 fold and 148 nM.
As to `O=C(CN1CCN(C2COC2)CC1)N(Cc1ccc(-c2nnc(C(F)F)o2)cc1F)c1ccc(F)c(Cl)c1` [Compound 11614, N-(3-chloro-4-fluorophenyl)-N-(4-(5-(difluoromethyl)-1,3,4-oxadiazol-2-yl)-2-fluorobenzyl)-2-(4-(oxetan-3-yl)piperazin-1-yl)acetamide], in experiment [1], the “HDAC6 selectivity (fold)” value was 1190 fold and the IC50 was 84 nM.
The matching figures for `O=C(C1CCN(C2COC2)CC1)N(Cc1ccc(-c2nnc(C(F)(F)F)o2)cc1F)c1ccccc1` [Compound 11621, N-(2-fluoro-4-(5-(trifluoromethyl)-1,3,4-oxadiazol-2-yl)benzyl)-1-(oxetan-3-yl)-N-phenylpiperidine-4-carboxamide]: 358 fold and 279 nM.
For `O=C(C1CCN(C2COC2)CC1)N(Cc1ccc(-c2nnc(C(F)F)o2)cc1F)c1ccccc1` [Compound 11622, N-(4-(5-(difluoromethyl)-1,3,4-oxadiazol-2-yl)-2-fluorobenzyl)-1-(oxetan-3-yl)-N-phenylpiperidine-4-carboxamide] the same measures were 714 fold and 140 nM.

Usually IC50 stands for the point on the concentration scale where inhibition reaches its midpoint.
